Here are results for one substance from patent US6355619B1, “Peptide tumor cell growth inhibitors” (Board of Regents, The University of Texas System, priority 1996, dated 2002).

The subject of experiment [1] is IL-8 receptors on neutrophils. Put plainly: Inhibition of 125I-labeled IL-8 binding to human neutrophils. How it is done:
Therefore, in pursuing this aim, the present inventors assayed various other peptide compositions for IL-8 inhibitory activity by screening a library of 400 groups of hexapeptides. In these screening assays, ^125I-labeled interleukin-8 (10^−12 M) was mixed with 100 μM peptide, then added to neutrophils and incubated at 4° C. for 90 min. The bound radioactivity was separated from unbound by centrifugation through a dense cushion of a mixture of paraffin and silicon oils and the ^125I bound to neutrophils was counted in a gamma radiation spectrometer, allowing the results to be expressed as the percent of IL-8 binding which was inhibited.
The use of human subjects for acquisition of neutrophils was approved by the Institutional Review Board for human experimentation. For the preparation of neutrophils, human blood was anticoagulated with heparin for enzyme release studies and with 0.33% sodium citrate for other studies. For chemotactic and enzyme release studies neutrophils were separated by dextran sedimentation and erythrocyte lysis by the method of Boyum (Kohler and Milstein, 1975). For binding studies and cytotoxic studies, the neutrophils were further purified in gradients of Percoll (Pharmacia Fine Chemicals, Piscataway, N.J.) to a purity of 90-93% (Kohler and Milstein, 1975).
Recombinant human IL-8 (72 amino acids; Pepro Tech Inc., Rocky Hill, N.J.) was radioactively labeled with ^125I by the chloramine T method of Hunter and Greenwood (Hunter and Greenwood, 1962). Binding studies were performed according to Besemer et al. (1989), as follows: Neutrophils in phosphate buffered saline pH 7.4 (PBS) containing 0.1% bovine serum albumin (BSA) were incubated with labeled ligand in the presence or absence of the peptide being tested for 90 min at 4° C. to reach equilibrium and then centrifuged at 12,000×g for 3 min in Beckman B microfuge (Beckman Instruments, Fullerton, Calif.), through a cushion consisting of a mixture of paraffin oil Fisher Scientific, Fair Lawn, N.J.) and silicon oil (Serva Co., N.Y., N.Y.). The pellet and supernatant were then counted in a gamma radiation spectrometer. The non-specific binding was estimated to measure the binding in the presence of 100-fold excess of non-labeled ligand. The binding constants were calculated using the computer programs Lundon I and Lundon II.
In these studies, a screening for inhibition was carried out at 100 μM concentration of the peptide being tested, with a 10^−12 M concentration of IL-8. In the first series of studies, twenty peptides were synthesized with the carboxyl-terminal residue of RRWWCX (SEQ ID NO:23) being changed to each of the standard protein amino acids in turn.

Another experiment deals with Hs 294T melanoma cells. Put plainly: Binding of 125I-IL-8 to Hs 294T melanoma cells. Also noted: species or system human. The method, then: (§1) FIG. 12. The specificity of the receptor binding. The melanoma cells, Hs 294T (closed symbols) and RPMI-7951 (open symbols), were incubated with indicated concentrations of radiolabeled MGSA/GROα (circles) or IL-8 (triangles). The non-specific binding was estimated by the binding in the presence of 100 fold excess of unlabeled material. Specific binding which is calculated by subtracting non-specific binding from total binding is shown in this figure.
(§2) Binding studies with melanoma cell lines were performed by the method of Horuk and colleagues (Horuk et al., 1993). Briefly, the cells (1×10^5 cells/well) in 24-well plates were washed two times with Hank's Balanced Salt Solution and incubated with ^125I-labeled MGSA/GROα or IL-8 in the buffer containing 1% bovine serum albumin at 4° C. for 3 hr. The incubation was terminated by vacuum aspiration of the supernatant. The cells were washed three times in binding buffer, solubilized by the addition of 200 μl of 1% SDS, and transferred to vials for counting. The non-specific binding was estimated by measuring the binding in the presence of 100-fold excess of non-labeled ligand. The binding parameters were calculated using the Lundon II computer program (Lundon Software Inc., Chagrin Falls, Ohio).

For another experiment, the system named is RPMI-7951 melanoma cells. Put plainly: Binding of 125I-IL-8 to RPMI-7951 melanoma cells. The method, then: as §1, §2
Where [2] appears, read: IL-8 alone, binding inhibition curves, Lundon II.

Where two headings read alike, the source gives them in different places.

The term Kd denotes the equilibrium constant for the complex coming apart. As to “IL-8: Recombinant human IL-8 (72 amino acids; Pepro Tech Inc.), radiolabeled ligand [reference compound]”, the “Bmax of IL-8, one-site model” value in experiment [1] (0 μM peptide, binding isotherms, Lundon I) is listed as 174.2 ± 14.5 fmole/10^6 cells. In addition, the Kd in experiment [1] (0 μM peptide, binding isotherms, Lundon I, read-out: Kd of IL-8, one-site model) stood at 1.3 ± 0.2 nM; in experiment [1] (IL-8 alone, binding inhibition curves, Lundon II, read-out: Receptor 1 Kd of IL-8), 0.03 nM; in experiment [1] (IL-8 alone, binding inhibition curves, Lundon II, read-out: Receptor 2 Kd of IL-8) it was 0.67 ± 0.04 nM. Also, the “Receptor 1 Bmax of IL-8” value in experiment [1] (setting [2]) was determined as 38.8 ± 0.6 fmole/10^6 cells. Moreover, the “Receptor 2 Bmax of IL-8” value in experiment [1] (setting [2]) came out at 68.8 ± 0.7 fmole/10^6 cells. Further, the “specific binding of IL-8 to melanoma cells” value with Hs 294T melanoma cells and with RPMI-7951 melanoma cells was “no specific binding” throughout.
